Assays:
Assay in all cases: relative viability (nuclei count vs DMSO), 5 days (fraction); higher = more cells survive
RERF-LC-KJ = test system: RERF-LC-KJ
Summary of the method: (§1)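 Cells from lung cancer lines were seeded into 1536-well plates and, one day later, dosed by pin tool. Treatments were either a single drug or a fixed dose of an anchor drug with five library-drug doses (not always all listed) in √10 steps. After 5 days, nuclei were stained in a one-step fixation (final 0.05% Triton X-100, 1% formaldehyde, 1 ug/ml Hoechst) and counted on 4× images, and relative viability is the treated-to-vehicle nuclei ratio, as the median of duplicate plates.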

SK-LU-1 = test system: SK-LU-1
Summary of the method: as §1

EMC-BAC-2 = test system: EMC-BAC-2
Summary of the method: as §1

HARA = test system: HARA
Summary of the method: as §1

COR-L23 = test system: COR-L23
Summary of the method: as §1

HOP-62 = test system: HOP-62
Summary of the method: as §1

NCI-H1437 = test system: NCI-H1437
Summary of the method: as §1

UMC-11 = test system: UMC-11
Summary of the method: as §1

NCI-H596 = test system: NCI-H596
Summary of the method: as §1

CAL-12T = test system: CAL-12T
Summary of the method: as §1

NCI-H1651 = test system: NCI-H1651
Summary of the method: as §1

NCI-H1650 = test system: NCI-H1650
Summary of the method: as §1

SMILES: Cc1cn(-c2cc(NC(=O)c3ccc(C)c(Nc4nccc(-c5cccnc5)n4)c3)cc(C(F)(F)F)c2)cn1 [Nilotinib] + C[C@@H](Oc1cc(-c2cnn(C3CCNCC3)c2)cnc1N)c1c(Cl)ccc(F)c1Cl [Crizotinib] (partner 1 µM)
- relative viability (RERF-LC-KJ; first compound 0.001 µM): 0.872
- relative viability (RERF-LC-KJ; first compound 0.003162 µM): 0.891
- relative viability (RERF-LC-KJ; first compound 0.01 µM): 0.917
- relative viability (RERF-LC-KJ; first compound 0.03162 µM): 0.814
- relative viability (RERF-LC-KJ; first compound 0.1 µM): 0.867
- relative viability (SK-LU-1; first compound 0.001 µM): 0.893
- relative viability (SK-LU-1; first compound 0.003162 µM): 0.888
- relative viability (SK-LU-1; first compound 0.01 µM): 0.933
- relative viability (SK-LU-1; first compound 0.03162 µM): 0.805
- relative viability (SK-LU-1; first compound 0.1 µM): 0.693
- relative viability (EMC-BAC-2; first compound 0.001 µM): 0.676
- relative viability (EMC-BAC-2; first compound 0.003162 µM): 0.682
- relative viability (EMC-BAC-2; first compound 0.01 µM): 0.795
- relative viability (EMC-BAC-2; first compound 0.03162 µM): 0.673
- relative viability (EMC-BAC-2; first compound 0.1 µM): 0.753
- relative viability (HARA; first compound 0.001 µM): 1.09
- relative viability (HARA; first compound 0.003162 µM): 1.42
- relative viability (HARA; first compound 0.01 µM): 1.61
- relative viability (HARA; first compound 0.03162 µM): 0.886
- relative viability (HARA; first compound 0.1 µM): 1.05
- relative viability (COR-L23; first compound 0.001 µM): 0.601
- relative viability (COR-L23; first compound 0.003162 µM): 0.625
- relative viability (COR-L23; first compound 0.01 µM): 0.848
- relative viability (COR-L23; first compound 0.03162 µM): 0.465
- relative viability (COR-L23; first compound 0.1 µM): 0.625
- relative viability (HOP-62; first compound 0.001 µM): 0.738
- relative viability (HOP-62; first compound 0.003162 µM): 1.22
- relative viability (HOP-62; first compound 0.01 µM): 1.13
- relative viability (HOP-62; first compound 0.03162 µM): 0.796
- relative viability (HOP-62; first compound 0.1 µM): 0.738
- relative viability (NCI-H1437; first compound 0.001 µM): 0.789
- relative viability (NCI-H1437; first compound 0.003162 µM): 1.25
- relative viability (NCI-H1437; first compound 0.01 µM): 1.13
- relative viability (NCI-H1437; first compound 0.03162 µM): 0.705
- relative viability (NCI-H1437; first compound 0.1 µM): 0.866
- relative viability (UMC-11; first compound 0.001 µM): 0.561
- relative viability (UMC-11; first compound 0.003162 µM): 0.525
- relative viability (UMC-11; first compound 0.01 µM): 0.585
- relative viability (UMC-11; first compound 0.1 µM): 0.68
- relative viability (NCI-H596; first compound 0.001 µM): 0.937
- relative viability (NCI-H596; first compound 0.01 µM): 1.07
- relative viability (NCI-H596; first compound 0.03162 µM): 0.958
- relative viability (NCI-H596; first compound 0.1 µM): 1.1
- relative viability (CAL-12T; first compound 0.003162 µM): 0.519
- relative viability (CAL-12T; first compound 0.01 µM): 0.902
- relative viability (CAL-12T; first compound 0.03162 µM): 0.345
- relative viability (CAL-12T; first compound 0.1 µM): 0.6
- relative viability (NCI-H1651; first compound 0.001 µM): 0.853
- relative viability (NCI-H1651; first compound 0.003162 µM): 0.986
- relative viability (NCI-H1651; first compound 0.01 µM): 1
- relative viability (NCI-H1651; first compound 0.03162 µM): 0.838
- relative viability (NCI-H1651; first compound 0.1 µM): 0.816
- relative viability (NCI-H1650; first compound 0.001 µM): 1.07
- relative viability (NCI-H1650; first compound 0.003162 µM): 1.1
- relative viability (NCI-H1650; first compound 0.01 µM): 0.998

— the supplement of paper PMC10307832
